Assay results reported in patent US6737425B1, “N,N-substituted cyclic amine derivatives” (Eisai Co., Ltd., priority 1998, dated 2004).

What was measured:
mice in a formalin test = test: Antalgic effect (II) on mice in a formalin test (comparison with morphine and indomethacin); assay type: in vivo; settings: for average left hind leg-licking time, Mean: formalin 5 minutes later
Procedure: Antalgic Effect (II) on Mice in a Formalin Test
The typical example of the compound of the present invention (the compound in Example 1) was compared with morphine and indomethacin in the same manner as in Pharmacological Experimental Example 5 above.
20.4 mg of the compound of the present invention was weighed, and 10.2 ml of 5.28% mannitol was added thereto to prepare 2 mg/ml (20 mg/kg) solution. Then, 3.8 ml of 5.28% mannitol was added to 3.8 ml of the 2 mg/ml solution to prepare 1 mg/ml (10 mg/kg) solution. Finally, 2.5 ml of 5.28% mannitol was added to 2.5 ml of the 1 mg/ml solution to prepare 0.5 mg/ml (5 mg/kg) solution. The test compound was weighed and prepared on the day when the experiment was conducted.
b-1) Morphine 17.0 mg of morphine purchased as a reagent was weighed, and 5.67 ml physiological saline was added thereto to form 3 mg/ml (30 mg/kg) solution. Then, 2.6 ml physiological saline was added to 1.3 ml of the 3 mg/ml solution to prepare 1 mg/ml (10 mg/kg) solution. Finally, 2.1 ml physiological saline was added to 0.9 ml of the 1 mg/ml solution to prepare 0.3 mg/ml (3 mg/kg) solution. The test compound was weighed and prepared on the day when the experiment was conducted.
12.9 mg of indomethacin purchased as a reagent was weighed, and 12.9 ml of 0.5% methyl cellulose (MC) was added thereto to form 1 mg/ml (10 mg/kg) suspension. Then, 2.24 ml of 0.5% MC was added to 0.96 ml of the 1 mg/ml suspension to prepare 0.3 mg/ml (3 mg/kg) suspension. Finally, 1.6 ml of 0.5% MC was added to 0.8 ml of the 0.3 mg/ml suspension to prepare 0.1 mg/ml (1 mg/kg) suspension. The test compound was weighed and prepared on the day when the experiment was conducted.
The treatment group by the compound of the present invention consisted of 4 groups in total, that is, a control group, a 5 mg/kg compound administration group, a 10 mg/kg compound administration group, and a 20 mg/kg compound administration group, and each group consisted of 5 animals.
The control group was given 0.1 ml of 5.28% mannitol per 10 g of the body weight via the tail vein. The compound of the present invention was administered via the tail vein at each concentration (0.5 mg/ml, 1 mg/ml, and 2 mg/ml) in an volume of 0.1 ml per 10 g of the body weight into the 5 mg/kg group, 10 mg/kg group and 20 mg/kg group, respectively.
The treatment group by morphine consisted of 4 groups in total, that is, a control group, a 3 mg/kg morphine administration group, a 10 mg/kg morphine administration group, and a 30 mg/kg morphine administration group, and each group consisted of 5 animals.
The control group was orally given 0.1 ml of physiological saline per 10 g of the body weight. Morphine was orally administered at each concentration (0.3 mg/ml, 1 mg/ml, and 3 mg/ml) in a volume of 0.1 ml per 10 g of the body weight into the 3 mg/kg group, 10 mg/kg group and 30 mg/kg group, respectively.
The treatment group by indomethacin consisted of 4 groups in total, that is, a control group, a 1 mg/kg indomethacin administration group, a 3 mg/kg indomethacin administration group, and a 10 mg/kg indomethacin administration group, and each group consisted of 5 animals.
The control group was orally given 0.1 ml of 0.5% MC per 10 g of the body weight. Indomethacin was orally administered at each concentration (0.1 mg/ml, […], and 1 mg/ml) in a volume of 0.1 ml per 10 g of the body weight into the 1 mg/kg group, 3 mg/kg group and 10 mg/kg group, respectively.
5.28% mannitol was administered via the tail vein into each group given the compound of the present invention or into the control group, and the animals were placed in a transparent plastic observation cage. 5 minutes later, 20 μl of 3% formalin was subcutaneously administered into the bottom of the left hind leg of each mouse. The duration of the behavior of mouse's licking the left hind leg after administration of formalin was measured for 5 minutes and used as an indication of pain. The duration was expressed in second. […]

[1] = system: glutamic acid release from rat cerebral cortex slices; test: Inhibitory activity on glutamic acid release (cerebral cortex slices, high-conc. KCl); assay type: cell-based; settings: glutamic acid release induced with 50 mM KCl, HPLC
Procedure: Inhibitory Activity on Glutamic Acid Release
Cerebral cortexes were isolated from SD strain male rats (8-week-old) and used to prepare 300 μm×300 μm slices by use of a slice chopper. The prepared slices were incubated at 37° C. for 30 minutes in solution C (120 mM NaCl, 4 mM KCl, 10 mM MgSO4, 16 mM NaHCO3, 10 mM glucose, 1 mM NaH2PO4, 10 mM HEPES-NaOH pH 7.4) in the presence of 95% O2/5% CO2. Thereafter, solution C was exchanged with fresh one, followed by further incubation for 30 minutes.
The cerebral cortex slices were incubated in a 24-wells plate for cell culture according to a multi-well method (Brain Res., 402, 255-263, 1987), and the release of glutamic acid was induced with 50 mM KCl. Solution D (120 mM NaCl, 4 mM KCl, 1.2 mM CaCl2, 1 mM MgSO4, 16 mM NaHCO3, 10 mM glucose, 1 mM NaH2PO4, 10 mM HEPES-NaOH pH 7.4) was aerated with 95% O2/5% CO2 and kept at 37° C. and used in this experiment. 50 mM KCl containing the same total amount of K^+ and Na^+ was prepared. Slices corresponding to 1 to 2 mg protein were placed on an upper cup provided with a mesh at the bottom, and 1.3 ml solution C or 50 mM KCl solution was introduced into a lower well, and the upper cup was transferred to a new well. 20 minutes before and 5 minutes after reaction was intiated, the test compound was added to solution D or 50 mM KCl.
Glutamic acid was quantified by HPLC using fluorescent etor (Ex. 330 nm Em. […]). The eluting solvent used was prepared by diluting 150 ml sodium citrate buffer for automatic amino acid analysis (Wako Pure Chemical Industries) 10-fold with distilled water, then adding MgCl2 thereto at the final concentration of 50 mM, and further diluting it twice with acetonitrile. The flow rate was 2.0 ml/min. The column used was Asahipak (ES-502N Denko, K. K.). The glutamic acid was converted into a derivative by addition, to 50 μl sample, of 50 μl deriving agent (10 mg o-phthalaldehyde/500 μl MeOH, 10 μl b-mercaptopropionic acid, 0.15 M sodium borate buffer pH 9.5, 100 μl) followed by stirring (Neuroscience Lett., 96, 202-206, 1989).

Structure (SMILES): CC(C)C(C#N)(CCCN1CCN(CCOc2ccc(F)cc2)CC1)c1ccccc1 (centres unmarked) [Example 1, 1-[(4-Cyano-5-methyl-4-phenyl)hexyl]-4-[2-(4-fluorophenoxy)ethyl]piperazine]
- average left hind leg-licking time, Mean (mice in a formalin test; 5 mg/kg i.v. (tail vein)): 49.4 s
- average left hind leg-licking time, Mean (mice in a formalin test; 10 mg/kg i.v. (tail vein)): 23.6 s
- average left hind leg-licking time, Mean (mice in a formalin test; 20 mg/kg i.v. (tail vein)): 2.2 s
- antalgic effect in the formalin test (mice in a formalin test; overall conclusion of the comparison): excellent effect similar to that of morphine
- IC50 [1]: 3.5 µM
